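Growth conditions: 96-well plates. Treatment: test compound, 48 hours, 5 concentrations. Analysis: linear interpolation between bracketing concentrations; unreached endpoints set to highest concentration. Abbreviation: GI50, concentration required for 50% inhibition of growth. TGI marks complete inhibition of growth.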
Experiments:
Experiment in all cases: NCI-60 cell line screen, 48 h
NCI/ADR-RES ovarian = tested on: NCI/ADR-RES ovarian
MCF7 breast = tested on: MCF7 breast
SNB-19 CNS = tested on: SNB-19 CNS
SF-268 CNS = tested on: SF-268 CNS
A549 NSCLC = tested on: A549 NSCLC
RPMI-8226 leukemia = tested on: RPMI-8226 leukemia
SF-295 CNS = tested on: SF-295 CNS
CAKI-1 renal = tested on: CAKI-1 renal
DU-145 prostate = tested on: DU-145 prostate
OVCAR-4 ovarian = tested on: OVCAR-4 ovarian
MDA-MB-435 = tested on: MDA-MB-435
HS 578T breast = tested on: HS 578T breast
SK-OV-3 ovarian = tested on: SK-OV-3 ovarian
T-47D breast = tested on: T-47D breast
KM12 colon = tested on: KM12 colon
NCI-H23 lung = tested on: NCI-H23 lung
LOX IMVI melanoma = tested on: LOX IMVI melanoma
EKVX NSCLC = tested on: EKVX NSCLC
HL-60(TB) leukemia = tested on: HL-60(TB) leukemia
NCI-H522 lung = tested on: NCI-H522 lung
786-0 renal = tested on: 786-0 renal
MDA-MB-468 breast = tested on: MDA-MB-468 breast
HCT-116 colon = tested on: HCT-116 colon
HOP-92 NSCLC = tested on: HOP-92 NSCLC
PC-3 prostate = tested on: PC-3 prostate
MALME-3M melanoma = tested on: MALME-3M melanoma
RXF 393 renal = tested on: RXF 393 renal
BT-549 breast = tested on: BT-549 breast
SR leukemia = tested on: SR leukemia
K-562 leukemia = tested on: K-562 leukemia

In the case of `COc1cnc2c(c1)C(=O)c1c-2n(CCCNC(C)C)c(=O)c2cc(OC)c(OC)cc12`, the TGI (NCI/ADR-RES ovarian) is reported as 14.6 µM, the GI50 (MCF7 breast) is reported as 0.222 µM and the TGI (MCF7 breast) is reported as 11.9 µM. For the same compound, the GI50 (SNB-19 CNS) was 1.2 µM, the TGI (SNB-19 CNS) was 12.8 µM and the GI50 (SF-268 CNS) was 1.31 µM. The TGI (SF-268 CNS) was 19.1 µM, the GI50 (A549 NSCLC) was 5.7 µM and the TGI (A549 NSCLC) was 23.8 µM. The GI50 (RPMI-8226 leukemia) was 1.39 µM, the TGI (RPMI-8226 leukemia) was 14.9 µM and the GI50 (SF-295 CNS) was 0.29 µM. For the same compound, the TGI (SF-295 CNS) was 12.6 µM, the GI50 (CAKI-1 renal) was 2.17 µM and the TGI (CAKI-1 renal) was 15.7 µM. The GI50 (DU-145 prostate) was 1.27 µM, the TGI (DU-145 prostate) was 13.5 µM and the GI50 (OVCAR-4 ovarian) was 2.5 µM. It also gave a TGI (OVCAR-4 ovarian) of 7.63 µM, a GI50 (MDA-MB-435) of 6.52 µM and a TGI (MDA-MB-435) of 20.3 µM. It also gave a GI50 (HS 578T breast) of 11.2 µM, a TGI (HS 578T breast) of 32.6 µM and a GI50 (SK-OV-3 ovarian) of 1.52 µM. The TGI (SK-OV-3 ovarian) was 8.18 µM, the GI50 (T-47D breast) was 4.97 µM and the TGI (T-47D breast) was 22.2 µM. The GI50 (KM12 colon) was 8.02 µM, the TGI (KM12 colon) was 21.9 µM and the GI50 (NCI-H23 lung) was 0.977 µM. It also gave a TGI (NCI-H23 lung) of 11.3 µM, a GI50 (LOX IMVI melanoma) of 1.19 µM and a TGI (LOX IMVI melanoma) of 4.6 µM. It also gave a GI50 (EKVX NSCLC) of 10.4 µM, a TGI (EKVX NSCLC) of 22.4 µM and a GI50 (HL-60(TB) leukemia) of 3.54 µM. It also gave a TGI (HL-60(TB) leukemia) of 17.2 µM, a GI50 (NCI-H522 lung) of 0.536 µM and a TGI (NCI-H522 lung) of 12.6 µM. It also gave a GI50 (786-0 renal) of 5.51 µM, a TGI (786-0 renal) of 19.1 µM and a GI50 (MDA-MB-468 breast) of 0.68 µM. The TGI (MDA-MB-468 breast) was 7.75 µM, the GI50 (HCT-116 colon) was 1.02 µM and the TGI (HCT-116 colon) was 12.8 µM. The GI50 (HOP-92 NSCLC) was 9.11 µM, the TGI (HOP-92 NSCLC) was 23.9 µM and the GI50 (PC-3 prostate) was 6.53 µM. It also gave a TGI (PC-3 prostate) of 30.5 µM, a GI50 (MALME-3M melanoma) of 11.5 µM and a TGI (MALME-3M melanoma) of 24 µM. The GI50 (RXF 393 renal) was 1.35 µM, the TGI (RXF 393 renal) was 5.71 µM and the GI50 (BT-549 breast) was 4.26 µM. The TGI (BT-549 breast) was 20.6 µM, the GI50 (SR leukemia) was 0.369 µM and the TGI (SR leukemia) was 4.85 µM. The GI50 (K-562 leukemia) was 0.496 µM and the TGI (K-562 leukemia) was 22.5 µM.
